Experimental data taken from patent publication US8394791B2, “Crystalline, enantiomerically pure salt form of a beta-agonist, and the use thereof as a drug” (Boehringer Ingelheim International GmbH, priority 2008, dated 2013).

Experiments:
[1] = Sorption profile (DVS sorption balance), hygroscopic characteristics; format: physicochemical; settings: relative humidity range between 10-90%; crystalline form
Experimental: Sorption Profile (DSV Diagram, Kinetic & Isothermic Plot, FIG. 3)
Technical Data Relating to the Sorption Balance Used:
DVS-1 made by Surface Measurement Systems (=SMS) for analysing the hygroscopic characteristics; humidity profile of 10-90% r.h. In 10% steps, recording both a sorption and a desorption profile, weight: 10-20 mg

Thermoanalysis (DSC/TG) = format: physicochemical; settings: heating rate 10 K/min, crystalline form (FIG. 2)
Experimental: Thermoanalysis (DSC/TG Diagram, FIG. 2)
Technical Data Relating to the Thermoanalytical DSC Device Used:
DSC 822 made by Mettler Toledo; heating rate: 10 K/min; type of crucible: perforated aluminium crucible; atmosphere: N2, 80 ml/min flux; weight: 3-10 mg.
Technical Data Relating to the Thermoanalytical TG Device Used:
TGA/SDTA 851 Made by Mettler Toledo with IR coupling (Nicolet FT-IR 4700) for analysing the volatile fractions driven off; heating rate: 10 K/min; type of crucible: open aluminium oxide crucible; atmosphere: N2, 20 ml/min flux; weight: 15-25 mg.

## CCC1(CC)OC(=O)N(CCC(C)(C)NC[C@H](O)c2ccc(O)c(NS(C)(=O)=O)c2)c2ccccc21 [compound 1, N-(5-{(R)-2-[3-(4,4-diethyl-2-oxo-4H-benzo[d][1,3]oxazin-1-yl)-1,1-dimethyl-propylamino]-1-hydroxy-ethyl}-2-hydroxy-phenyl)-methanesulphonamide]
[1]
  water absorption: less than 0.5 wt. %
Thermoanalysis (DSC/TG)
  thermally stable at a thermal load of up to: up to 210 °C
